What all share (format): cell-based
One test concerns the target Brd2 (Homo sapiens, UniProt P25440). Put plainly: Time-dependent BET degradation, immunoblot. Set-up: endogenous in cells; host or cells: HEK293 (CRL-1573), HeLa (CCL-2). To be noted: HeLa, Brd2, 1 μM. How it is done:
Immunoblotting. Proteins were separated by SDS-PAGE on NuPage 4-12% Bis-Tris gels, followed by transfer to Amersham Protran 0.45 NC nitrocellulose membrane (GE Healthcare) using wet transfer. Membranes were blocked using 5% w/v milk in Tris-buffered saline (TBS) with 0.1% Tween-20. Blots were probed (overnight at 4 °C) using anti-Brd2 (Abcam ab139690, 1:2,000 dilution), anti-Brd3 (Abcam ab50818, 1:500 dilution), and anti-Brd4 (Abcam ab128874, 1:1,000 dilution) primary antibodies, as appropriate. The next day, blots were washed with TBST and incubated (1 h at Room temperature) with anti-Tubulin hFAB-rhodamine (BioRad, 12004166) primary antibody, and either anti-rabbit IRDye 800CW (Licor 1:1,000 dilution) or anti-mouse IRDye 800CW (Licor 1:1,000 dilution) secondary antibody. Blots were developed using a Bio-Rad ChemiDoc MP Imaging System, and band quantification was performed using Image Studio software (LiCor). Band intensities were normalized to the tubulin loading control and reported as % of the average 0.1% DMSO vehicle intensity. Degradation data was plotted and analysed using Prism (Graphpad, version 8).
HEK293 (0.5×10^6) cells were seeded in standard 6-well plates (2 mL medium) overnight before treatment with compounds at 1 μM concentration, with a final DMSO concentration of 0.1% v/v. After incubation for the desired time (0-24 hrs), cells were washed with DPBS (Gibco) and lysed using 85 μL RIPA buffer (Sigma-Aldrich) supplemented with complete Mini EDTA-free protease inhibitor cocktail (Roche) and benzonase. Lysates were clarified by centrifugation (20000 g, 10 min, 4° C.) and the total protein content of the supernatant was quantified using a Bradford colorimetric assay. Samples were prepared using equal amounts of total protein and LDS sample buffer (Invitrogen). Band intensities were normalized to the tubulin loading control and reported as % of the average 0.1% DMSO vehicle intensity. Degradation data was plotted and analysed using Prism (Graphpad, version 8).
MZ1 and 11JQ17 were used at 1 μM (4 h) for positive and negative controls, respectively. […]
(In western blotting, separated proteins are transferred to a membrane and probed.)

The target in a further test is T1, Brd4 (Homo sapiens, UniProt O60885).
T1 construct: immunoblot analysis of Brd4 following 4 h treatment of HEK293 cells; endogenous in cells; host or cells: HEK293 (CRL-1573)
Put plainly: Mechanistic evaluation: Brd4 degradation after inhibitor pre-treatment. To be noted: HEK293, 1 μM degrader 4 h. The procedure:
HeLa (5×10^5) and HEK293 (1×10^6) cells were seeded in standard 6-well plates (2 mL medium) overnight before pre-treatment with inhibitors (10 μM bortezomib, 10 μM capzimin, 10 μM JQ1). After a 0.5 h pre-incubation time, cells were subsequently treated with vehicle, 1 μM MZ1 or 1 μM 11JQ15, yielding a final overall DMSO concentration of 0.2% v/v. After 4 h incubation, cells were washed with DPBS (Gibco) and lysed using 85 μL RIPA buffer (Sigma-Aldrich) supplemented with cOmplete Mini EDTA-free protease inhibitor cocktail (Roche) and benzonase. Lysates were clarified by centrifugation (20000 g, 10 min, 4° C.) and the total protein content of the supernatant was quantified using a Bradford colorimetric assay. Samples were prepared using equal amounts of total protein and LDS sample buffer (Invitrogen).
Brd4 band intensities were normalized to tubulin loading control and reported in FIG. 6B as % of the average 0.1% DMSO vehicle intensity. Each bar is mean±SEM of three independent experiments performed in duplicate (n=3).

For the next test, the system named is HEK293 cells. In words: Unbiased whole proteome analysis by TMT-labelling MS. To be noted: HEK293, 1 μM, 4 h, n=3. How it is done: HEK293 (2.2×10 6) cells were seeded in 10 cm plates (10 mL medium) overnight before treatment with 1 μM compound for a final DMSO concentration of 0.1% v/v. After 4 h incubation time, cells were washed with 2× with DPBS (Gibco) and lysed using 500 μL lysis buffer (100 mM Tris, 4% (w/v) SDS, pH 8.0) supplemented with cOmplete Mini EDTA-free protease inhibitor cocktail (Roche) and benzonase. Lysates were briefly sonicated (2×10 s), clarified by centrifugation (20000 g, 10 min, 4° C.) and the total protein content of the supernatant was quantified using a BCA assay (Thermo Fisher Scientific).
Sample processing, digestion, desalting, labelling, and fractionation were performed at Fingerprint Proteomics (University of Dundee) as described previously [Gadd et al. 10.1038/nchembio.2329]. FIG. 7 depicts fold change of abundance of 7882 proteins comparing 11JQ15 to DMSO treatment (left) and comparing 1 μM 11JQ17 to DMSO treatment (right), as well as their respective p-values (t-test; n=3).

Test [1] relates to Brd4, c-MYC, cleaved PARP (C-PARP). In words: Immunoblot of Brd4, c-MYC and cleaved PARP in MV4-11 cells. The procedure: MV4-11 (0.7×10^6 cells/mL) were seeded in 10 cm plates (10 mL DMEM supplemented with 10% FBS and L-glutamine) overnight before treatment with compounds at the desired concentration and with a final DMSO concentration of 0.1% v/v. After 6 h incubation time, cells were washed with 2× with DPBS (Gibco) and lysed using 85 μL RIPA buffer (Sigma-Aldrich) supplemented with cOmplete Mini EDTA-free protease inhibitor cocktail (Roche) and benzonase. Lysates were clarified by centrifugation (20000 g, 10 min, 4° C.) and the total protein content of the supernatant was quantified using a Bradford colorimetric assay. Samples were prepared using equal amounts of total protein and LDS sample buffer (Invitrogen). For immunoblot analysis, the following antibodies were used: anti-Brd4 (ab128874, 1:1,000 dilution), anti-cmyc (ab32072, 1:1000 dilution), anti-CPARP (CST-9541T, 1:1,000 dilution), and anti-Tubulin hFAB-rhodamine (BioRad, 12004166, 1:10000 dilution).

Setting [2] is: MV4-11, increasing concentrations, 6 h.

Chain of Brd2 (P25440 whole entry): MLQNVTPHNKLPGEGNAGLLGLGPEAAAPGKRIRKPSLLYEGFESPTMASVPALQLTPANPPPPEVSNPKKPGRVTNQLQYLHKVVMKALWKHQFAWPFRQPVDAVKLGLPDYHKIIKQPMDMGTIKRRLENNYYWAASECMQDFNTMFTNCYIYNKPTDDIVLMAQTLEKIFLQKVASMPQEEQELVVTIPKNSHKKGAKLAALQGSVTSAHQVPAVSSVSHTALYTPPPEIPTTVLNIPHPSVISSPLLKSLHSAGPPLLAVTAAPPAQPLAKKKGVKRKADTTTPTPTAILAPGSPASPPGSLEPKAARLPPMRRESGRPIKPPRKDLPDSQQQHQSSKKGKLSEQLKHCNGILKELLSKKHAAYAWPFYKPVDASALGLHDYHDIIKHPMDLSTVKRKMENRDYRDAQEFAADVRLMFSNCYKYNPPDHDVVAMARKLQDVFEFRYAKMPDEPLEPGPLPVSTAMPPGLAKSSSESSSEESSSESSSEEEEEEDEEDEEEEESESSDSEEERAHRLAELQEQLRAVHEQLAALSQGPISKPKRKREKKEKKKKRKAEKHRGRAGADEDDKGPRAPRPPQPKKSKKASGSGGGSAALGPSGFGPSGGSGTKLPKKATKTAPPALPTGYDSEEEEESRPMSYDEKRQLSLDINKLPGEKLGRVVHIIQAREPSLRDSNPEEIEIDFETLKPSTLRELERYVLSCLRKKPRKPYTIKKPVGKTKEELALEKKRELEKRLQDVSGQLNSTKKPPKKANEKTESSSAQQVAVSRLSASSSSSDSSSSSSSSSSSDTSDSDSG

As to `Cc1sc2c(c1C)C(c1ccc(Cl)cc1)=N[C@@H](CC(=O)NCCCCNC(=O)c1cc(S)c3ncc(C(=O)NCCc4nccs4)cc3c1)c1nnc(C)n1-2` [Example 11JQ7], the Dmax at 1 µM on Brd2 was found to be 50%. The “Abs. T1/2” value at Brd2 (time to deplete 50% of the protein relative to DMSO) was determined as 4 h. Besides, the “T1/2” value at Brd2 (time to reach 50% of the Dmax) came to 4 h.

On to `Cc1sc2c(c1C)C(c1ccc(Cl)cc1)=N[C@@H](CC(=O)NCCOCCNC(=O)c1cc(SC(=O)c3ccccc3)c3ncc(C(=O)NCCc4nccs4)cc3c1)c1nnc(C)n1-2` [Example 11JQ15], for which the “Brd4 degradation in the presence of JQ1” value on Brd4 (10 μM JQ1 pre-treatment 0.5 h) is listed as “completely blocked”. Also, on Brd4 (10 μM bortezomib pre-treatment 0.5 h), the “Brd4 degradation in the presence of bortezomib” value was “completely blocked”. The “Brd4 degradation in the presence of capzimin” value at Brd4 (10 μM capzimin pre-treatment 0.5 h) is “significantly blocked”. In addition, the “fold change of abundance of 7882 proteins vs DMSO (FIG. 7)” value with HEK293 cells was “selective degradation of Brd2, Brd3 and Brd4”.

For `Cc1sc2c(c1C)C(c1ccc(Cl)cc1)=N[C@@H](CC(=O)NCCCCNC(=O)c1cc(SC(=O)c3ccccc3)c3ncc(C(=O)NCCc4nccs4)cc3c1)c1nnc(C)n1-2` [Example 11JQ16], the “increase in C-PARP compared with JQ1 and 11JQ18” value in test [1] (MV4-11, 6 h) was “significantly greater than inhibitor (JQ1) alone and the negative control (11JQ18)”. Also, in test [1] (setting [2]), the “Brd4 and c-MYC levels (FIG. 9)” value is “depletion of Brd4 and c-MYC levels”; the “cleaved PARP (FIG. 9)” value is recorded as “corresponding increase in cleaved PARP”.

For orientation: Dmax means the greatest extent of degradation seen. High values mean a fuller loss of target, low ones a partial loss of target.

The values above are taken from patent US11925690B2, “Bifunctional molecules for targeting Rpn11” (AMPHISTA THERAPEUTICS LTD, priority 2018, dated 2024).
